Assay results: patent US7166581B1, “Treatment of chemotherapeutic agent and antiviral agent toxicity with acylated pyrimidine nucleosides” (Wellstat Therapeutics Corporation, priority 1987, dated 2007)

Tests used:
[1] = system: hematopoietic system (5-FU toxicity); assay: Acyl derivatives of uridine i.p. vs bone marrow toxicity of 5-FU (Example 3); assay type: in vivo, female Balb/C mice; conditions: for Spleen weights: day eleven after 5-FU, in mg; for HCT % / Lym / Neut / RBC / WBC: eleven days after 5-FU; for Spleen weight: day seven after 5-FU 150 mg/kg i.p., i.p. doses equimolar to uridine 300 mg/kg/treatment
Method: Ninety-eight female Balb/C mice weighing approximately 20 grams each were given a one-time 150 mg/kg injection (i.p.) of 5-FU at 1 p.m. on the initial day of the study. […] All of these doses are equimolar, and were administered in a volume of 0.4 ml by i.p. injection. The groups were treated at 3:30, 6:00, and 8:30 p.m. on the initial day with their respective agents. […] On days seven and eleven following 5-FU administration, blood (0.2–0.3 ml) was collected from seven mice in each group by retro-orbital bleeding into EDTA for subsequent differential blood cell counting. Mice were sacrificed by cervical dislocation; their right femurs removed and the contents expelled for cell counting; and their spleens removed and weighed.

[2] = system: CD8F1 spontaneous mammary adenocarcinoma; assay: TAU/uridine rescue with 5-FU alone in tumor-bearing mice (Example 5); assay type: in vivo
Method: Sixty CD8F1 (BALB/C×[…]) female mice with first generation transplants of CD8F1 spontaneous mammary adenocarcinoma were treated with a weekly chemotherapy regimen which included a single dose of 5-FU (150 mg/kg) followed by various rescue strategies. The average tumor size was 157 mg at the start of the chemotherapy. The weekly chemotherapy course was completed three times.
In order to evaluate the various rescue therapies, the animals were divided into six groups of ten animals each as follows: […]

[3] = system: hematopoietic system (5-FU toxicity); assay: Octanoyluridine vs hematological toxicity of 5-FU (Example 3A); assay type: in vivo, Balb/C female mice; conditions: seven days after 5-FU 75 mg/kg i.p.; Oct-U 100 mg/kg/treatment i.p.
Method: Fourteen Balb/C female mice weighing approximately 20 grams each were given a one-time 75 mg/kg i.p. injection of 5-FU at 11:00 a.m. on the initial day of the study. Half of these animals were subsequently treated with Oct-U (100 mg/kg/treatment, i.p.), while the other half (controls) were injected with physiological saline. Administration of Oct-U and saline occurred at 2:30, 4:30, and 7:00 p.m. on the initial day, and at 9:30 a.m., 12:00 noon, 2:30, and 5:00 p.m the following day. An additional group of seven mice (basals) received no 5-FU and no treatments.

[4] = Toxicity of oral tegafur with TAU or uracil: body weight and blood cell counts (Example 13); assay type: in vivo, mice; conditions: alone or with uracil or TAU 4:1 molar
Method: Triacetyluridine (TAU), like other acyl derivatives of uridine and cytidine of the invention, is converted to uridine and uracil during and after absorption into the bloodstream; when present at the same time as 5-FU, both uridine and uracil are capable of potentiating 5-FU cytotoxicity. Therefore, the cytotoxicity of oral tegafur+uracil versus tegafur+TAU was assessed. Blood cell counts were utilized as an index of cytotoxicity of 5-FU in the circulation (and by extension, of antitumor potency). Body weight loss was used as an index of gastrointestinal toxicity.
Three groups of mice received tegafur by oral intubation in a dose of 400 mg/kg per mouse. The initial body weight of mice in each group was 19.0±0.6 grams. One of these groups also received uracil in a molar ratio of 4:1 to the tegafur dose, and another group received TAU, also in a 4:1 molar ratio to tegafur. Body weights were monitored. Six days after tegafur administration, blood samples were taken for differential cell counts.
All drugs were administered orally in a single dose. Blood samples were taken for cell counts 6 days after drug administration; body weights were also recorded at this time.

[5] = system: hematopoietic system (AZT toxicity); assay: DAdC or THU vs hematopoietic damage by i.p. AZT in Balb/C mice (Example 11); assay type: in vivo, female Balb/C mice; conditions: for Total neutrophil counts: day thirteen, AZT + DAdC 300 mg/kg p.o. or THU […] i.p. three times daily
Method: AZT (100 mg/kg i.p.) was given three times daily at 9 a.m., 4 p.m., and 10 p.m. to twenty-one female Balb/C mice weighing approximately 20 grams each. […] Treatment volume was 0.2 ml. One group of seven mice was not given AZT or any treatment (basal).
(§1) On day thirteen blood (0.2–0.3 ml) was collected from mice in each group by retro-orbital bleeding-into EDTA for subsequent differential blood cell counting, including reticulocytes. The animals were then sacrificed by cervical dislocation; their right femurs removed and the contents expelled for cell counting; and their spleens removed and weighed.

[6] = system: hematopoietic system (Ara-C toxicity); assay: DAdC or PdC vs hematopoietic toxicity of arabinosyl cytosine (Example 7); assay type: in vivo, Balb/C female mice; conditions: Ara-C 100 mg/kg i.p. daily for five days; DAdC 411 mg/kg p.o. or PdC 200 mg/kg i.p. twice daily
Method: Twenty-one Balb/C female mice weighing approximately 20 grams each received a daily intraperitoneal injection of Ara-C (100 mg/kg) for five days. These mice were divided into three treatment groups: oral administration of water (controls); oral administration of DAdC (411 mg/kg/treatment); and intraperitoneal administration of PdC (200 mg/kg/treatment in 0.2% Tween 80). Mice were treated with either water, DAdC, or PdC twice daily, at 9 a.m. and 6 p.m. Treatment volume in each case was 0.2 ml. An additional seven mice received no Ara-C and no treatment at all (basals).
On days seven and eleven following 5-FU administration, blood (0.2–0.3 ml) was collected from the seven mice in each group by retro-orbital bleeding into EDTA for subsequent differential blood cell counting. Mice were sacrificed by cervical dislocation, and their spleens removed and weighed.

[7] = system: hematopoietic system (AZT toxicity); assay: Oral DAdC vs hematopoietic toxicity of i.p. AZT in DBA mice (Example 10); assay type: in vivo, female DBA mice
Method: AZT (100 mg/kg i.p.) was given three times daily at 9 a.m., 4 p.m., and at 10 p.m. to twenty-eight female DBA mice weighing approximately 20 grams each. Three times each day, at 9 a.m., 4 p.m., and 10 p.m., animals were treated with either water (control) or DAdC (411 mg/kg/treatment) by oral intubation. Treatment volume was 0.2 ml. One additional group of fourteen mice was not given AZT or any treatment (basal).
During the first few days of treatment a total of eight mice died from accidents occurring during oral administration of the water and DAdC. Therefore, the number of animals in the control group and the DAdC group were reduced on the days of sacrifice as follows: On day 6 there were four mice in the control group and five in the DAdC group; on day 13 there were seven in the control group and three in the DAdC group. The number of basal animals was seven at both time points.
as §1, with “days six and” for “day”, “bleeding into” for “bleeding-into”

[8] = day seven after 5-FU, equimolar i.p. doses
[9] = 6 days after single oral tegafur 400 mg/kg
[10] = AZT for six days + oral DAdC 411 mg/kg/treatment
[11] = AZT for thirteen days + oral DAdC 411 mg/kg/treatment
[12] = AZT for thirteen days + DAdC 300 mg/kg/treatment p.o.

## benzoyluridine [BU]
[1]; equimolar i.p. doses
  Spleen weights: 126.9±12.3
  HCT %: 36.87 ± 0.6 %
  Lym: 5.1 ± .4 K/μl
  Neut: 1.04 K/μl
  RBC: 7.62 ± .1 M/μl
  WBC: 6.20 ± .49 K/μl
[1]; [8]
  Platelet counts: 829.6 ×10^3 per microliter

## O=c1[nH]cc(F)c(=O)[nH]1 [5-FU, 5-fluorouracil]
[2]; 5-FU 150 mg/kg i.p. weekly x3 + vehicle (oil-water emulsion)
  Mortality: 10/10
[2]; 5-FU alone 150 mg/kg i.p. weekly x3, no rescue
  Mortality: 9/10

## CCCCCCCC(=O)OCC1OC(n2ccc(=O)[nH]c2=O)C(O)C1O (stereo not shown) [Oct-U]
[1]; after 5-FU, OU 455 mg/kg/treatment i.p.
  overall effect at the dose used: somewhat detrimental
[3]
  Lym: 4.62 ± .29 thousands per microliter
  Marrow: 7.73 ± .68 thousands per microliter
  Neut: 1.19 ± .22 thousands per microliter
  PLT: 1243 ± 59 K/μl
  RBC: 8.13 ± .14 M/μl
  Spleen weight: 87.2 ± 3.7 mg
  WBC: 5.96 ± .47 thousands per microliter

## O=c1[nH]c(=O)n(C2CCCO2)cc1F (stereo not shown) [Tegafur]
[4]; [9]
  Body weight: 18.2 ± 0.7 grams
  Neutrophils: 0.40 ± 0.085 K/μl
  Platelets: 956 ± 30 K/μl
[4]; oral tegafur 400 mg/kg
  loss of body weight compared to untreated (basal) animals: 7%

## valeryluridine [VU]
[1]; equimolar i.p. doses
  Spleen weights: 139.4±8.0
  HCT %: 38.31 ± 0.8 %
  Lym: 5.2 ± .4 K/μl
  Neut: .97 ± K/μl
  RBC: 7.83 ± .1 M/μl
  WBC: 6.31 ± .42 K/μl
[1]
  Spleen weight: 69.1 ± 1.7 mg
[1]; [8]
  Lymphocyte counts: 6.42±0.49 ×10^3 per microliter
  Platelet counts: 825.7±26.7 ×10^3 per microliter
  Total neutrophil counts: 0.141±0.027 ×10^3 per microliter
  White blood cell counts: 6.57±0.49 ×10^3 per microliter

## O=C1NC(O)CCN1[C@@H]1O[C@H](CO)[C@@H](O)[C@H]1O (stereo partly shown) [THU, Tetrahydrouridine, reference compound]
[5]
  Total neutrophil counts: 1.16±0.15

## ethoxycarbonyluridine [ECU]
[1]
  Spleen weight: 75.7 ± 5.0 mg
[1]; [8]
  Lymphocyte counts: 7.19±0.32 ×10^3 per microliter
  White blood cell counts: 7.26±0.31 ×10^3 per microliter
[1]; equimolar i.p. doses
  HCT %: 37.54 ± 1.0 %
  Lym: 4.8 ± .5 K/μl
  Neut: .66 ± K/μl
  RBC: 7.65 ± .2 M/μl
  WBC: 5.51 ± .64 K/μl

## CC(=O)OC[C@H]1O[C@@H](n2ccc(N)nc2=O)C[C@@H]1OC(C)=O [DAdC, diacetyldeoxycytidine]
[6]
  Neut: 0.42 ± .05 K/μl
  PLT: 728 ± 64 K/μl
  Spleen: 87.8 ± 3.5 milligrams
  WBC: 5.00 ± .42 K/μl
[7]; [10]
  HCT: 40.84 ± 1.35
  HGB: 13.96 ± .40
  RBC: 9.49 ± .32
  Reticulocytes: .205 ± .075
[7]; [11]
  HCT: 41.53 ± 1.17
  HGB: 13.97
  RBC: 9.16 ± .32
  Reticulocytes: .814 ± .069
[7]; day six, AZT 100 mg/kg i.p. three times daily + oral DAdC 411 mg/kg/treatment
  reduction in bone marrow cellularity vs basals: 2.5%
[7]; day thirteen, AZT + oral DAdC 411 mg/kg/treatment
  Platelet counts: 769±32
[5]; AZT 100 mg/kg i.p. three times daily for thirteen days + DAdC 300 mg/kg/treatment p.o.
  RBC: 8.26 ± .13
[5]; [12]
  HCT: 39.51 ± 0.61
  HGB: 14.97 ± .15
  Retic.: .059 ± .006
[5]
  Total neutrophil counts: 1.39±0.14

## palmitoyldeoxycytidine [PdC]
[6]
  Neut: 1.22 ± .27 K/μl
  PLT: 327 ± 30 K/μl
  Spleen: 126.0 ± 5.3 milligrams
  WBC: 5.20 ± .35 K/μl
